Measurements taken from US20110230430A1, “SAPONIN EXTRACT FROM SAPONARIA SPP. AND USES THEREOF” (NATIONAL RESEARCH COUNCIL OF CANADA, priority 2008, published 2011).

Columns and labels:
MDA-MB-231 cells = assay: Vybrant Apoptosis Assay Kit #2 in MDA-MB-231 cells; assay type: cell-based, human
Source text: Another apoptotic assay is the Annexin-V detection of extracellular phosphatidlyserine (PS). Normally, phosphatidylserine is localized on the inner membrane of the plasmalemma. However, during the early stages of apoptosis, externalization of PS takes place. Annexin-V is a calcium binding protein which binds to PS and can be observed with annexin-V-FITC staining by flow cytometry (Martin, et al., 1995). Alexa Fluor® 488-labeled Annexin V, which has a high affinity for PS, is used to detect apoptotic cells by binding to PS on the outer surface of the cell. Propidium iodide staining is used concurrently to detect dead cells. When cells are analyzed by flow cytometry apoptotic cells show Annexin V staining, late apoptotic cells show PI and Annexin V staining, and dead cells show only PI staining. The Vybrant® Apoptosis Assay Kit #2 (Molecular Probes™) used herein in the Examples is an assay that measures Annexin-V positive cells.
The MDA-MB-231 cell line (ATCC #HTB-26) was derived from the pleural effusion of a patient with a breast adenocarcinoma (Cailleau et al., 1974). The cells were maintained in RPMI 1640 (Gibco) supplemented with 10% fetal bovine serum (Camera), 100 U/mL penicillin, 100 μg/mL streptomycin and 0.25 μg/mL amphotericin B. Cultures were maintained in medium at 37° C. with 5% CO2 and 100% relative humidity.
MDA-MB-231 cells were treated with PC1448 and assayed for apoptosis as previously described for PC-3 cells.

PC-3 cells = assay: Dual Sensor: MitoCasp Assay in PC-3 prostate cancer cells; assay type: cell-based, human
Source text: Techniques to assay enzymatic and signaling processes involved in apoptosis have been developed as standard protocols. One example of an early step in apoptosis, is the release of cytochrome C from mitochondria and the activation of caspase-3. Induction of the caspases (a series of cytosolic proteases) is one of the most consistently observed features of apoptosis. Caspases are a family of proteolytic enzymes that transmit the apoptotic signal using a proteolytic cascade. […] Caspases 3 and 7 are effector caspases, central to the caspase cascade pathways. In particular, caspase-3 plays a central role in the process. When caspases are activated, they cleave target proteins; one of the most important of these is poly-(ADP-ribose) polymerase (PARP), which is a protein located in the nucleus. Therefore, assays detecting release of cytochrome C, detecting caspase-3 activity and detecting PARP degradation are effective determinants of apoptosis. The loss of mitochondrial membrane potential is known to occur during apoptosis. To analyze mitochondrial membrane potential, a cationic dye may be used which accumulates in the mitochondria of healthy cells. Collapse of the mitochondrial membrane potential during apoptosis prevents the dye from accumulating in the mitochondria resulting in a decrease in fluorescent intensity that can be detected with flow cytometry. Dual Sensor: MitoCasp™ (Cell Technology) used herein in the Examples is an assay that measures caspase 3/7 activity and cells with decreased mitochondrial membrane potential. In this assay, caspase 3/7 activity is detected using a cell permeable carboxyfluorescein labeled caspase inhibitor, which binds covalently to active caspases 3 and 7. Cells that contain bound inhibitor are detected by an increase in fluorescence when samples are analyzed by flow cytometry.
PC-3 cells (ATCC #CRL-1435) were derived from a prostate adenocarcinoma (Kaighn et al., 1979). They were maintained in RPMI 1640 medium (Gibco) supplemented with 10% fetal bovine serum (Cansera), 100 U/mL penicillin, and 100 μg/mL streptomycin and 0.25 μg/mL amphotericin B. Cultures were maintained in medium at 37° C. with 5% CO2 and 100% relative humidity.
To harvest adherent cells, the existing medium was removed and cells were dissociated with 0.25% (w/v) trypsin-EDTA·4Na in Hank's Balanced Salt Solution (Gibco). To block the proteolytic action of the trypsin, the cells were resuspended in an excess of media containing fetal bovine serum. Cells were transferred to a 15 mL conical centrifuge tube and pelleted by centrifugation at 500×g for 5 min. Cell pellets were resuspended in media, and an aliquot of the cells were seeded into a new flask.
PC-3 cells were seeded in tissue culture flasks with regular growth medium and maintained under normal conditions. […] Following incubation under normal growth conditions for the specified time, cells were washed once with cold phosphate-buffered saline (PBS) (137 mM NaCl, 2.7 mM KCl, 4.3 mM Na2HPO4.7H2O, 1.4 mM KH2PO4) and harvested as previously described. Assays were carried out according to instructions given in kits. All Flow Cytometry was performed using a Coulter Epics XL (Beckman).
Following centrifugation at 500×g for 5 min, cell pellets were resuspended in PBS at 3.3×10^6 cells/mL. 300 μL cell suspension was mixed with 10 μL each of 30X Mitochondria Membrane Potential Dye and 30X Caspase 3/7 detection reagent. Following incubation for 60 min under normal growth conditions, cells were washed twice with 1× wash buffer and resuspended in 0.5 mL 1× wash buffer. Samples were analyzed by flow cytometry measuring the fluorescence emissions from 515 nm to 530 nm for caspase detection, and 574 nm to 600 nm for mitochondrial membrane potential detection.

[1] = Haemolytic properties of selected saponins; conditions: saponins purified to more than 75%
Source text: The haemolytic properties of the various saponins that have been purified to more than 75% have been examined and are provided in Table 39. Haemolytic properties are not directly related to anti-cancer or apoptosis inducing properties of saponins but may be related to toxicity and utility of the saponins for preparation of injectable formulations. Saponins most suitable for injectable formulation will be less haemolytic. QS21, a purified Quillaja saponaria saponin with known haemolytic activity is used as reference.

[2] = system: PC-3, MDA-MB-231, WiDr, and HT-29 Cells; assay: Order of apoptosis potency across cancer cell lines; set-up: species or system human; conditions: rank based on responses observed in PC-3, MDA-MB-231, WiDr, and HT-29 Cells; 1 = most active

## Segetoside H [PC1448]
MDA-MB-231 cells; 14 μM PC1448, 12 hours
  Increase in Annexin V positive cells vs untreated: 2.7 fold
MDA-MB-231 cells; 14 μM PC1448, 12 hr
  Annexin-V positive cells: 46.3%
MDA-MB-231 cells; 14 μM PC1448, 24 hr
  Annexin-V positive cells: 37.9%
MDA-MB-231 cells; 14 μM PC1448, 48 hr
  Annexin-V positive cells: 37.9%
PC-3 cells; 2.5 μM PC1448, 37 hr
  Cells with caspase 3/7 activity: 5.6%
  Cells with decreased mitochondrial membrane potential: 6.0%
PC-3 cells; 5.0 μM PC1448, 37 hr
  Cells with caspase 3/7 activity: 35.1%
  Cells with decreased mitochondrial membrane potential: 9.9%
PC-3 cells; 7 μM PC1448, 26 hr
  Cells with caspase 3/7 activity: 77.8%
  Cells with decreased mitochondrial membrane potential: 24.8%
PC-3 cells; 10 μM PC1448, 26 hr
  Cells with caspase 3/7 activity: 86.2%
  Cells with decreased mitochondrial membrane potential: 30.8%
PC-3 cells; 10.0 μM PC1448, 37 hr
  Cells with caspase 3/7 activity: 76.8%
  Cells with decreased mitochondrial membrane potential: 26.7%
PC-3 cells; 14 μM PC1448, 05 hr
  Cells with caspase 3/7 activity: 13.0%
  Cells with decreased mitochondrial membrane potential: 38.0%
PC-3 cells; 14 μM PC1448, 10 hr
  Cells with caspase 3/7 activity: 29.2%
  Cells with decreased mitochondrial membrane potential: 72.5%
PC-3 cells; 14 μM PC1448, 15 hr
  Cells with caspase 3/7 activity: 42.9%
  Cells with decreased mitochondrial membrane potential: 89.4%
PC-3 cells; 14 μM PC1448, 20 hr
  Cells with caspase 3/7 activity: 57.2%
  Cells with decreased mitochondrial membrane potential: 94.1%
PC-3 cells; 14 μM PC1448, 20 hr (4.5% to 94.1%)
  Increase in cells with a decreased mitochondrial membrane potential vs untreated: ~20 fold
PC-3 cells; 14 μM PC1448, 26 hr
  Cells with caspase 3/7 activity: 84.0%
  Cells with decreased mitochondrial membrane potential: 52.0%
PC-3 cells; 14 μM PC1448, over the 20 hr exposure period
  Increase in cells with measurable caspase 3/7 activity vs untreated: approximately a doubling
PC-3 cells; 15.0 μM PC1448, 37 hr
  Cells with caspase 3/7 activity: 72.9%
  Cells with decreased mitochondrial membrane potential: 32.3%
PC-3 cells; 17 μM PC1448, 26 hr
  Cells with caspase 3/7 activity: 77.7%
  Cells with decreased mitochondrial membrane potential: 41.9%
PC-3 cells; 37 hours
  Concentration of greatest effect on apoptosis: above 10 μM
  Induction of apoptosis at concentrations as low as: 5.0 µM
PC-3 cells; PC1448 7-17 μM, 26 hr
  Concentration with the greatest change in cells with decreased mitochondrial membrane potential: 14 µM
  Concentration with the largest increase in caspase 3/7 activity: 10 µM
PC-3 cells; PC1448 7-17 μM, 26 hr, all treated cells
  Increase in caspase 3/7 activity vs untreated: 9 fold
[1]
  HD50: 13.8 µM
[2]
  Order of Apoptosis Potency: 7

## Segetoside I [PC1464]
MDA-MB-231 cells; 7 μM PC1464, 12 hr
  Annexin-V positive cells: 28.8%
MDA-MB-231 cells; 7 μM PC1464, 24 hr
  Annexin-V positive cells: 39.7%
MDA-MB-231 cells; 7 μM PC1464, 36 hour
  Increase in Annexin V positive cells vs untreated: 3 fold
MDA-MB-231 cells; 7 μM PC1464, 36 hr
  Annexin-V positive cells: 49.3%
PC-3 cells; 1.25 μM PC1464, 36 hr
  Cells with caspase 3/7 activity: 9.6%
  Cells with decreased mitochondrial membrane potential: 1.8%
PC-3 cells; 1.75 μM PC1464, 26 hr
  Cells with caspase 3/7 activity: 8.5%
  Cells with decreased mitochondrial membrane potential: 3.2%
PC-3 cells; 2.5 μM PC1464, 36 hr
  Cells with caspase 3/7 activity: 15.1%
  Cells with decreased mitochondrial membrane potential: 3.4%
PC-3 cells; 3.50 μM PC1464, 26 hr
  Cells with caspase 3/7 activity: 40.4%
  Cells with decreased mitochondrial membrane potential: 14.8%
PC-3 cells; 5.0 μM PC1464, 36 hr
  Cells with caspase 3/7 activity: 57.1%
  Cells with decreased mitochondrial membrane potential: 28.7%
PC-3 cells; 5.25 μM PC1464, 26 hr
  Cells with caspase 3/7 activity: 49.5%
  Cells with decreased mitochondrial membrane potential: 20.3%
PC-3 cells; 7 μM PC1464, 10 hr
  Cells with caspase 3/7 activity: 12.2%
  Cells with decreased mitochondrial membrane potential: 5.1%
PC-3 cells; 7 μM PC1464, 20 hr
  Cells with caspase 3/7 activity: 40.1%
  Cells with decreased mitochondrial membrane potential: 21.4%
PC-3 cells; 7.00 μM PC1464, 26 hr
  Cells with caspase 3/7 activity: 59.4%
  Cells with decreased mitochondrial membrane potential: 24.1%
PC-3 cells; 7 μM PC1464, 30 hours
  Increase in cells with decreased mitochondrial membrane potential: more than ten fold
  Increase in number of cells with caspase 3/7 activity: six fold
PC-3 cells; 7 μM PC1464, 30 hr
  Cells with caspase 3/7 activity: 54.6%
  Cells with decreased mitochondrial membrane potential: 51.2%
PC-3 cells; 10.0 μM PC1464, 36 hr
  Cells with caspase 3/7 activity: 59.6%
  Cells with decreased mitochondrial membrane potential: 43.2%
PC-3 cells; 36 hours
  Concentration of greatest effect on apoptosis: above 5 μM
  Induction of apoptosis at concentrations as low as: 2.5 µM
PC-3 cells; PC1464 1.75-7 μM, 26 hour
  Concentrations with significant effect on induction of apoptosis: ≥ 3.5 µM
[1]
  HD50: 17.5 µM
[2]
  Order of Apoptosis Potency: 4
